These results are taken from PMC10526854, “Shikonin and Juglone Inhibit Mycobacterium tuberculosis Low-Molecular-Weight Protein Tyrosine Phosphatase a (Mt-PTPa)” (BioTech, 2023).

Structures are written as SMILES.

One experiment deals with T1, Mt-PTPa (Mycobacterium tuberculosis, UniProt P9WIA1).
T1 construct: made in house; host or cells: E. coli BL21(DE3)pLysS
In words: Mt-PTPa phosphatase activity inhibition assay (hydrolysis of p-nitrophenyl phosphate, A405). The format is biochemical. The note with it: for IC50 / Ki / inhibition of Mt-PTPa compared with vanadate: Mt-PTPa 10 µM; for IC50 / inhibition of Mt-PTPa compared with vanadate: pNPP 100 µM; for IC50: 37 °C, 10 min, compound 0-1000 µM, mean ± SD (n = 3); for Ki: Dixon plot analysis, inhibitor 0-100 µM, read-out: KI (inhibitor constant); for Ki / inhibition pattern (mechanism): pNPP 0.25-2.50 mM; for inhibition of Mt-PTPa compared with vanadate: at 25 and 50 µM; for inhibition pattern (mechanism): double-reciprocal analysis.

In experiment [1] the target is protein tyrosine phosphatase 1B (PTP1B). Further details: method as in PMID 34208908. As to conditions: in vitro; cited from earlier work.
Experiment [2] concerns N-formyl-L-methionyl-L-leucyl-L-phenylalanine-induced protein tyrosine phosphorylation. Further details: method as in PMID 9175722. The note with it: in neutrophils; cited from earlier work.

T1 sequence (P9WIA1 whole entry): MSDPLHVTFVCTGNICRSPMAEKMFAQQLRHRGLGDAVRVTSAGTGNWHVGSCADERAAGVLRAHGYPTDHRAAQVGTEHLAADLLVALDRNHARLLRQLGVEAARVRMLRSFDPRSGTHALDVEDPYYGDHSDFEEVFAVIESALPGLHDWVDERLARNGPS

A word on the IC50: it is the concentration that inhibits the measured activity by half. Consider `Oc1cc(O)c2c(c1)O[C@H](c1cc(O)c(O)c(O)c1)[C@H](O)C2` [Epigallocatechin, epigallocatechin], for which, on Mt-PTPa, the “initial library screen outcome” value is reported as “hits” and the IC50 worked out at 492 ± 101 µM.
One may read the Ki as a dissociation constant, usually derived from enzyme kinetics or from competition with a known ligand. Regarding `O=C1C=CC(=O)c2c(O)cccc21` [Juglone, 5-hydroxy-1,4-naphthalenedione], on Mt-PTPa, the Ki was 12.5 µM, the “inhibition of Mt-PTPa compared with vanadate” value is on record as “comparable levels of inhibition to vanadate” and the “inhibition pattern (mechanism)” value was “non-competitive”.
As to `O=c1c(O)c(-c2cc(O)c(O)c(O)c2)oc2cc(O)cc(O)c12` [Myricetin, myricetin], at Mt-PTPa, the “initial library screen outcome” value is given as “hits” and half-maximal inhibition (IC50) was put at 250 ± 25 µM.
On the same counts, the results for `O=C(/C=C/c1ccc(O)c(O)c1)O[C@H](Cc1ccc(O)c(O)c1)C(=O)O` [Rosmarinic Acid, rosmarinic acid] are “hits” and 900 ± 132 µM.
On to `CC(C)=CC[C@@H](O)C1=CC(=O)c2c(O)ccc(O)c2C1=O` [Shikonin, 5,8-dihydroxy-2-[(1R)-1-hydroxy-4-methyl-3-pentenyl]-1,4-naphthoquinone], for which, at Mt-PTPa, the “initial library screen outcome” value was “hits”, the Ki was found to be 8.5 µM, it took 33 ± 7 µM to reach half-maximal inhibition (IC50) and the “inhibition of Mt-PTPa compared with vanadate” value is on record as “comparable levels of inhibition to vanadate”. Also, the “inhibition pattern (mechanism)” value at Mt-PTPa is listed as “non-competitive”. Further, the IC50 in experiment [1] was 15.5 µM.
Regarding `CC(=O)O[C@H](CC=C(C)C)C1=CC(=O)c2c(O)ccc(O)c2C1=O` [acetylshikonin], in experiment [2], the “reduction of protein tyrosine phosphorylation” value is given as 90%.
With `C[C@H]1[C@H](C)CC[C@]2(C(=O)O)CC[C@]3(C)C(=CC[C@@H]4[C@@]5(C)CC[C@H](O)C(C)(C)[C@@H]5CC[C@]43C)[C@H]12` [ursolic acid, reference compound], the IC50 in experiment [1] was 8.72 µM.
